# Results: patent publication US20210361570A1, “IN SITU GELLING POLYSACCHARIDE-BASED NANOPARTICLE HYDROGEL COMPOSITIONS, AND METHODS OF USE THEREOF” (McMaster University, priority 2020, published 2021)
# How the values were obtained:
# [1] = L-DOPA anti-oxidation in hydrogels (visual colour); assay type: physicochemical; conditions: 3 mg L-DOPA, MES pH 6 or PBS pH 7.4, 12 h at 37° C.
# Experimental: 200 μL of 25 w/v % (DS 0.5) SNP-CHO or SNP-APBA was combined with 200 μL of CMCh (pH 7) to form a 400 μL bulk hydrogel in a 12 plate well. Gels were loaded with 3 mg of L-DOPA by suspending the powered drug into the aqueous SNP precursor before gelling. The gels were submerged in 3 mL of 0.1M MES (pH 6) buffer or 10 mM PBS (pH 7.4) buffer. Oxidation of L-DOPA was assessed visually, with the formation of dark yellow-brown and black precipitates indicating L-DOPA oxidation to its dopaquinone and dopachrome polymer forms, and assessed with respect to controls of L-DOPA at the same concentration in each of the respective buffers (without a hydrogel).
# C. elegans = test: 6-OHDA Parkinsonian model, electrotaxis movement testing; assay type: in vivo; conditions: L-DOPA free or loaded in 25 w/v % hydrogels (DS=0.5)
# Experimental: The stability of L-DOPA delivered using the SNP-CHO@CMCh or SNP-APBA@CMCh bulk hydrogels was assessed using an in vivo C. elegans assay. Wild-type late larval stage worms were exposed to 30 mM 6-OHDA in ascorbic acid for 1 hr to induce dopaminergic neurodegeneration. After 24 hours, worms were added to a 12-well plate in which each well contains 400 μL of SNP-CHO@CMCh or SNP-APBA@CMCh bulk hydrogel as well as E. coli (for food) to form a 3 mL liquid culture in which worms are continuously exposed to released L-DOPA.
# Worms were sampled at various time points (0 h, 4 h, 8 h, 12 h, 24 h, 48 h) to assess movement. Motility changes, assessed based on the average speed of the worms in mm/s (minimum n=20 worms per sample and time point tested), were measured using an in-house voltage-induced electrotaxis microfluidic assay developed to quantify drug induced dopaminergic neuron signal-mediated movement. In addition to the test sample (Group 1), control groups of no 6-OHDA, no hydrogel (Group 2, untreated control), 6-OHDA, no hydrogel (Group 3, drug control); 6-OHDA, blank hydrogel (Group 4, material control); and 6-OHDA, drug(s) without hydrogel (Group 5, delivery vehicle control) were assessed (minimum n=20 worms/group). L-DOPA was loaded in both SNP-CHO@CMCh and SNP-APBA@CMCh 25 w/v % hydrogels (DS=0.5) at 3 or 9 […].
# [2] = test system: Sprague-Dawley rats, MK-801 model of schizophrenia; test: MK-801 schizophrenia model, social interaction behavioral testing; assay type: in vivo, rat
# Experimental: Age-matched male Sprague-Dawley rats (250-300 g, Charles River Canada, St. Constant, QC, Canada) received care that complied with protocols approved by the Animal Research Ethics Board at McMaster University and the guidelines of the Canadian Council on Animal Care. Animals were housed individually in standard cages on a reverse 12 h light cycle. Upon arrival, animals were habituated to their holding room for 1 week, followed by a week of handling (touching and petting for at least 5 minutes each, every other day) prior to any testing. Animals were handled regularly throughout the duration of all experimentation (2-3 times per week outside of experiments) and housed in a room maintained at 22° C. with 50% humidity and access to food and water ad libitum. The animal masses at the end of the experiments were between 400-550 g.
# For the in situ animal injections, all drugs were dissolved in artificial cerebrospinal fluid (aCSF) solution formulated in-lab comprised of 120 mM NaCl, 4.8 mM KCl, 1.2 mM KH2PO4, 1.2 mM MgSO4, 25 mM NaHCO3, 2.5 mM CaCl2), and 10 mM D-glucose. Further, PAOPA (with or without hydrogel formulation) was administered at concentration of 0.5 mg/kg intranasally, selected based on effective concentrations observed via dose-dependent intraperitoneal (IP) administrations. The PAOPA was added equally to both the CMCh and the SNP solutions and allowed to sit for 24 h to allow for any polymer-drug interactions to occur before gelation. All precursor solutions were passed through a 0.45 µm filter (VWR) to sterilize them prior to injection into a live animal. […]
# To administer the payload for the five experimental groups, a single rat was removed from its cage and placed into a closed anesthesia box with transparent sides for proper observation. Aerosolized isoflurane (with oxygen) was passed into the box until the rat was determined to be anesthetized via foot pinching reflex test. […]
# Rats were assessed for social interaction with and without MK-801 and drug/formulation administration. […]
# [3] = test system: Sprague-Dawley rats, MK-801 model of schizophrenia; conditions: PAOPA 1 mg/kg IP, literature; cited from earlier work
# [4] = Body weight in the in vivo anti-tumor test; set-up: species or system C57BL/6 mice; conditions: 5.0 mg/kg DOX tail vein every three days, ten days
# Experimental: (§1) The antitumor effect of DOX, DOX-Clusters (control), and Dox-iClusters was evaluated by tracking the relative tumor volume (V/V0) after treatment with the nanocluster nanogels. C57BL/6 mice were injected intradermally with B16-F10 melanoma tumor cells, allowing the tumors to grow to ˜20 mm^3 by day 7 after the injections. The mice were treated by tail vein injection of 200 μL of PBS, DOX, DOX-iCluster and DOX-Cluster every three days (5.0 mg/kg of DOX for all formulations), after which both the tumor size and body weight were monitored regularly over a 10-day period.
# B16-F10 melanoma tumor = test: In vivo anti-tumor test (relative tumor volume); set-up: species or system C57BL/6 mice; conditions: 5.0 mg/kg DOX tail vein every three days, 10-day period
# Experimental: as §1
smiles,measurement,setting,value
"N[C@@H](Cc1ccc(O)c(O)c1)C(=O)O [L-DOPA, 3,4-dihydroxy-L-phenylalanine]",L-DOPA oxidation (colour),[1],became black with oxidation
same,duration of improved swimming speed / motility vs 6-OHDA control,C. elegans,4 h
NC(=O)CN1CC[C@@H](NC(=O)[C@@H]2CCCN2)C1=O [PAOPA],social interaction deficits,"[2]; 0.5 mg/kg IN 30 minutes before MK-801, assessed 30 minutes post-MK-801",expected attenuation of social interaction deficits
same,social interaction deficits,"[2]; 0.5 mg/kg IN, MK-801 challenge 24 hours later",the benefits of PAOPA were no longer observed
same,total social interaction time relative to untreated control,"[2]; no MK-801, intranasal, PAOPA 0.5 mg/kg or unloaded hydrogel",neither increased nor decreased total interaction times
same,social interaction time,[3],did not affect social interaction time
"COc1cccc2c1C(=O)c1c(O)c3c(c(O)c1C2=O)C[C@@](O)(C(=O)CO)C[C@@H]3O[C@H]1C[C@H](N)[C@H](O)[C@H](C)O1.Cl [free DOX, doxorubicin hydrochloride]",body weight,[4],significantly reduced body weight
same,relative tumor volume (V/V0),B16-F10 melanoma tumor,24 × volume increase
